Reference: patent US4372948A, “Derivative of saccharide and physiologically active agent containing the same” (Kureha Kagaku Kogyo Kabushiki Kaisha, priority 1980, dated 1983)

How the values were obtained:
[1] = tested on: total cholesterol; experiment: Anti-hyperlipemia activity, total cholesterol in blood; format: in vivo, rabbit (Japanese white male); settings: oral, 300 mg/kg once; for Reduction of cholesterol level after 3 hrs.: negative = raising
Summary of the method: (§1)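 Male Japanese white rabbits fed 1% cholesterol diet for 3 months received compound once orally at 300 mg/kg in water. Ear-vein blood: cholesterol by enzymatic method, beta-lipoprotein by colorimetry; values are change from predose at 3 or 6 h.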

[2] = in vivo; settings: mouse, in vivo, po, mice, 7 days observation, read-out: LD50, acute oral toxicity
[3] = tested on: level of blood sugar; experiment: Anti-hyperglycemia activity (reduction of blood sugar level); format: in vivo, rat (Wistar, streptozotocin); settings: oral, 300 mg/kg
Summary of the method: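 Streptozotocin-diabetic Wistar rats (60 mg/kg i.p., relapsed hyperglycemia after insulin) given compounds orally at 300 mg/kg in distilled water. Blood sugar measured in samples taken 3 and 6 h post-dose.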

[4] = tested on: carrageenin edema; experiment: Anti-Carrageenin edema activity; format: in vivo, rat; settings: 1000 mg/kg once; for inhibition in vivo at 1000 mg/kg: Rattus norvegicus, po, read-out: I.R. against carrageenin edema; for I.R. against carrageenin edema: oral, 1000 mg/kg
Summary of the method: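 Rats (10 per group) given compound orally once at 1000 mg/kg in distilled water, then 0.1 ml 1% carrageenin injected into right hind foot pad. Foot pad thickness measured at intervals; inhibition rate (%) = (1−T/C)×100 versus carrageenin-only animals.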

[5] = tested on: beta-lipoprotein; experiment: Anti-hyperlipemia activity, beta-lipoprotein in blood; format: in vivo, rabbit (Japanese white male); settings: oral, 300 mg/kg once
Summary of the method: as §1

[6] = tested on: cotton pellet granuloma; experiment: Anti-granuloma activity (cotton pellet); format: in vivo, rat; settings: 7 days; for inhibition in vivo at 1000 mg/kg/day: Rattus norvegicus, po, 192 h, read-out: I.R. against cotton pellet edema; for I.R. against cotton pellet edema: oral, 1000 mg/kg/day
Summary of the method: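 Rats (6/group) implanted dorsally with two 30±1 mg cotton pellets; compounds given orally in distilled water at 1000 mg/kg/day once daily for 7 days. Granuloma excised on day 8 and dry weight measured; value is % inhibition of granuloma proliferation.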

[7] = tested on: pseudo-escaping reaction to tail pressure; experiment: Analgetic activity against mechanical stimulation of pressure; format: in vivo, mouse (ICR female); settings: oral, 1000 mg/kg
[8] = tested on: exudation; experiment: Anti-exudation activity (air pouch, croton oil); format: in vivo, rat; settings: 5 days; for inhibition in vivo at 1000 mg/kg/day: Rattus norvegicus, po, 144 h, read-out: I.R. against exudation; for I.R. against exudation: oral, 1000 mg/kg/day
Summary of the method: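 Rats, 6 per group, given subcutaneous dorsal air pouch injected with 0.5 ml sesame oil containing 1% croton oil. Compounds dosed orally in distilled water at 1000 mg/kg/day for five days; pouch exudate volume measured on day 6 and expressed as percent inhibition of exudation.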

[9] = tested on: pyrexia (Saccharomyces cerevisiae); experiment: Anti-pyrexia activity (yeast-induced); format: in vivo; settings: Rattus norvegicus, oral, read-out: Rate of inhibiting pyrexia (I.R.)
Summary of the method: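 Rats (n=6/group) received subcutaneous 20% Saccharomyces cerevisiae suspension, fasted 10 h, then dosed orally with 1000 mg/kg compound in distilled water. Rectal temperature was tracked at set intervals and the lowest value taken; inhibition rate computed against non-yeast and yeast-only control temperatures.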

[10] = tested on: acetic acid writhing; experiment: Analgetic activity against chemical stimulation of acetic acid (writhing); format: in vivo, mouse (ICR female); settings: 30 min before 0.6% acetic acid; for inhibition in vivo at 1000 mg/kg: Mus musculus, po, read-out: I.R. of writhing; for I.R. of writhing: oral, 1000 mg/kg
Source text: Rate of inhibition (I.R.) (%)=(1-T/C)×100
T represents the average number of writhing of the group of mice administered with the present compound and injected with acetic acid, and C represents the average number of writhing of the group of mice only injected with acetic acid (control).

[11] = tested on: Sarcoma-180; experiment: Anti-tumour activity against Sarcoma-180; format: in vivo, mouse (ICR-JCL); settings: 10 times every other day, tumour weight on 25th day; for inhibition in vivo at 500 mg/kg: Mus musculus, Sarcoma-180, po, 600 h, read-out: Antitumour activity, inhibiting rate (I.R.); for Antitumour activity, inhibiting rate (I.R.): oral, 500 mg/kg/time, 500 mg/kg
Summary of the method: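 ICR-JCL mice were given 1×10^6 Sarcoma-180 cells axillary; from 24 hours, compounds in saline were dosed orally at 500 mg/kg/time, 10 times every other day. Tumour nodes were weighed on day 25; inhibition rate = (1-T/C)×100(%) versus untreated tumour-bearing mice.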

[12] = tested on: blood pressure; experiment: Anti-hypertension activity (reduction of blood pressure); format: in vivo, rat (spontaneous hypertension); settings: oral, 300 mg/kg
Summary of the method: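 Spontaneously hypertensive rats dosed orally at 300 mg/kg in distilled water. Blood pressure measured at 3 and 6 h. Activity taken as change from the value just before dosing.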

[13] = tested on: ICR-JCL mice; experiment: in vivo; settings: 7 days observation, 10080 min
[14] = tested on: Bacillus subtilis strain M45; experiment: Mutagenicity, Rec-Assay, recombination repair deficient strain; settings: 10 microgram/disk
Procedure: (§2) Then, a solution or suspension of each of the present compounds was absorbed on a round sheet of paper (disk) of 8 mm in diameter in an amount of 0.04 ml and the disk was placed on the culture plate so as to cover the starting points of the streaks of the micro-organism's culture.

[15] = tested on: Bacillus subtilis strain H17; experiment: Mutagenicity, Rec-Assay, recombination repair retaining strain; settings: 10 microgram/disk
Procedure: as §2

[16] = tested on: foot pad reaction to sheep erythrocyte; experiment: Delayed-type intracutaneous reaction (foot pad reaction, cellular immunity); format: in vivo, mouse (ICR-JCL); settings: same dose (250 mg/kg/day) intraperitoneally
Procedure: In order to know the influence of the present compounds on the cellular immunity, a foot pad reaction test was carried out by using ICR-JCL mice as experimental animals and sheep erythrocyte as an antigen as follows:
Sheep erythrocytes were suspended in a physiological saline solution at a concentration of 10% by volume and 0.2 ml of the suspension was injected into the caudal vein of each mouse for the primary sensitization, and after 7 days, a 40% by volume suspension of the erythrocytes in physiological saline solution was injected into the foot pad of the mouse for the challenge. The thickness of the injected foot pad was measured on the next day. One of the present compounds was administered intraperitoneally at dose of 250 mg/kg/day once a day for continued 5 days around the day of the first sensitization as a center.

| Compound | Reduction of cholesterol level after 3 hrs. [1] | Reduction of cholesterol level after 6 hrs. [1] | LD50 at 168 h [2] | Reduced level of blood sugar after 3 hrs. [3] | Reduced level of blood sugar after 6 hrs. [3] | inhibition in vivo at 1000 mg/kg [4] | Reduction of beta-lipoprotein level after 3 hrs. [5] | Reduction of beta-lipoprotein level after 6 hrs. [5] | inhibition in vivo at 1000 mg/kg/day [6] | Pseudo-escapting reaction pressure [7] | Pseudo-escapting reaction time [7] | inhibition in vivo at 1000 mg/kg/day [8] | inhibition in vivo at 1000 mg/kg [9] | inhibition in vivo at 1000 mg/kg [10] | inhibition in vivo at 500 mg/kg [11] | Reduced level of blood pressure after 3 hrs. [12] | Reduced level of blood pressure after 6 hrs. [12] | also measured |
| --- | --- | --- | --- | --- | --- | --- | --- | --- | --- | --- | --- | --- | --- | --- | --- | --- | --- | --- |
| O=C(OCC1CCCCC1)c1ccc(NC2OC[C@@H](O)[C@@H](O)[C@H]2O)cc1 (stereo partly drawn) [Compound 23, hexahydrobenzyl p-aminobenzoate-N-D-riboside] | -1 mg/dL | 40 mg/dL | 12600 mg/kg | 120 mg/dL | 126 mg/dL | 4.9% | 141 mg/dL | 143 mg/dL | 7.3% | 80 mmHg | 39 s | 22.5% | 15% | 23% | 47% | 21 mm Hg | 22 mm Hg |  |
| O=C(OCC1CCCCC1)c1ccc(NC2O[C@H](CO)[C@@H](O)[C@H](O)[C@H]2O)cc1 (stereo partly drawn) [Compound 24, hexahydrobenzyl p-aminobenzoate-N-D-glucoside] | 2 mg/dL | 32 mg/dL | 12100 mg/kg | 101 mg/dL | 145 mg/dL | 10.6% | 95 mg/dL | 111 mg/dL | 16.9% | 85 mmHg | 42 s | 8.7% | 48% | 41% | 40% | 19 mm Hg | 21 mm Hg |  |
| C[C@@H]1OC(Nc2ccc(C(=O)OCC3CCCCC3)cc2)[C@H](O)[C@H](O)[C@H]1O (stereo partly drawn) [Compound 25, hexahydrobenzyl p-aminobenzoate-N-L-rhamnoside] | -3 mg/dL | 44 mg/dL | 9400 mg/kg | 88 mg/dL | 127 mg/dL | 18.1% | 95 mg/dL | 106 mg/dL | 6.5% | 93 mmHg | 44 s | 22.3% | 54% | 50% | 50% | 16 mm Hg | 18 mm Hg |  |
| COC(=O)Cc1ccc(NC2O[C@@H](C)[C@H](O)[C@@H](O)[C@H]2O)cc1 (stereo partly drawn) [Compound 26, methyl p-aminophenylacetate-N-L-rhamnoside] | -3 mg/dL | 51 mg/dL | 11200 mg/kg | 90 mg/dL | 136 mg/dL | 5.3% | 123 mg/dL | 133 mg/dL | 24.1% | 92 mmHg | 41 s | 17.7% | 60% | 34% | 45% | 20 mm Hg | 23 mm Hg |  |
| C[C@@H]1OC(Nc2ccc(CC(=O)O)cc2)[C@H](O)[C@H](O)[C@H]1O (stereo partly drawn) [Compound 28, sodium p-aminophenylacetate-N-L-rhamnoside] |  |  |  | 92 mg/dL | 77 mg/dL |  |  |  |  | 87 mmHg | 38 s |  |  |  |  | 25 mm Hg | 19 mm Hg | Reduction of cholesterol level after 3 hrs. ([1]; 300 mg/kg): 5 mg/dL; Reduction of cholesterol level after 6 hrs. ([1]; 300 mg/kg): 25 mg/dL; LD50, acute oral toxicity [13]: 11100 mg/kg; I.R. against carrageenin edema [4]: 8.3%; Reduction of beta-lipoprotein level after 3 hrs. ([5]; 300 mg/kg): 101 mg/dL; Reduction of beta-lipoprotein level after 6 hrs. ([5]; 300 mg/kg): 100 mg/dL; I.R. against cotton pellet edema [6]: 20.6%; I.R. against exudation [8]: 6.1%; I.R. of writhing [10]: 25%; Antitumour activity, inhibiting rate (I.R.) [11]: 45% |
| C[C@@H]1OC(Nc2ccc(CC(=O)O)cc2)[C@H](O)[C@H](O)[C@H]1O (stereo partly drawn) [Compound 29, potassium p-aminophenylacetate-N-L-rhamnoside] |  |  |  | 88 mg/dL | 71 mg/dL |  |  |  |  | 84 mmHg | 41 s |  |  |  |  | 21 mm Hg | 17 mm Hg | Reduction of cholesterol level after 3 hrs. ([1]; 300 mg/kg): 3 mg/dL; Reduction of cholesterol level after 6 hrs. ([1]; 300 mg/kg): 40 mg/dL; LD50, acute oral toxicity [13]: 10000 mg/kg; I.R. against carrageenin edema [4]: 9.3%; Reduction of beta-lipoprotein level after 3 hrs. ([5]; 300 mg/kg): 95 mg/dL; Reduction of beta-lipoprotein level after 6 hrs. ([5]; 300 mg/kg): 121 mg/dL; I.R. against cotton pellet edema [6]: 15.9%; I.R. against exudation [8]: 5.8%; I.R. of writhing [10]: 26%; Antitumour activity, inhibiting rate (I.R.) [11]: 38% |
| NC[C@H]1O[C@H](O[C@H]2[C@H](O)[C@@H](O[C@H]3O[C@H](CO)[C@@H](O)[C@H](N)[C@H]3O)[C@H](N)C[C@@H]2N)[C@H](O)[C@@H](O)[C@@H]1O [Kanamycin] |  |  |  |  |  |  |  |  |  |  |  |  |  |  |  |  |  | Length of growth inhibition M45 [14]: 6 mm; Difference of growth inhibition (M45, H17) ([14]; M45 minus H17): 3 mm; Length of growth inhibition H17 [15]: 3 mm |
| CO[C@@]12[C@H](COC(N)=O)C3=C(C(=O)C(C)=C(N)C3=O)N1C[C@@H]1N[C@@H]12 [Mitomycin C, mitomycin C] |  |  |  |  |  |  |  |  |  |  |  |  |  |  |  |  |  | mortality in foot pad reaction test [16]: died |
